Results as given in patent US20130310379A1, “MODULATORS OF METHYL MODIFYING ENZYMES, COMPOSITIONS AND USES THEREOF” (CONSTELLATION PHARMACEUTICALS, priority 2010, published 2013).

How the values were obtained:
EZH2 = EZH2 (Homo sapiens, UniProt Q15910); assay: EZH2 assay: rPRC2 with biotinylated oligonucleosome substrates and 3H SAM, FlashPlate scintillation counting, IC50; type: biochemical; settings: rPRC2, biotinylated oligonucleosome substrates, 3H SAM; read-out: EZH2 IC50
Method in brief: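 rPRC2 (2 nM EZH2) pre-incubated 20 min with compound (80 to 0.16 uM, ten 2-fold steps), then 60 min reaction with 0.2 uM 3H SAM, 0.2 uM biotinylated oligonucleosomes, 3.6 uM H3K27me3 peptide in Tris pH 8.5. SAH/EDTA quench; 4-parameter IC50 fit.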

Y641N EZH2 = Y641N EZH2 (Homo sapiens, UniProt Q15910, Y641N); assay: Y641N EZH2 assay: performed as the EZH2 assay, using reconstituted H3K27Me2 oligonucleosomes as substrate; type: biochemical
Chain of Y641N EZH2 (Q15910 whole entry Y641N): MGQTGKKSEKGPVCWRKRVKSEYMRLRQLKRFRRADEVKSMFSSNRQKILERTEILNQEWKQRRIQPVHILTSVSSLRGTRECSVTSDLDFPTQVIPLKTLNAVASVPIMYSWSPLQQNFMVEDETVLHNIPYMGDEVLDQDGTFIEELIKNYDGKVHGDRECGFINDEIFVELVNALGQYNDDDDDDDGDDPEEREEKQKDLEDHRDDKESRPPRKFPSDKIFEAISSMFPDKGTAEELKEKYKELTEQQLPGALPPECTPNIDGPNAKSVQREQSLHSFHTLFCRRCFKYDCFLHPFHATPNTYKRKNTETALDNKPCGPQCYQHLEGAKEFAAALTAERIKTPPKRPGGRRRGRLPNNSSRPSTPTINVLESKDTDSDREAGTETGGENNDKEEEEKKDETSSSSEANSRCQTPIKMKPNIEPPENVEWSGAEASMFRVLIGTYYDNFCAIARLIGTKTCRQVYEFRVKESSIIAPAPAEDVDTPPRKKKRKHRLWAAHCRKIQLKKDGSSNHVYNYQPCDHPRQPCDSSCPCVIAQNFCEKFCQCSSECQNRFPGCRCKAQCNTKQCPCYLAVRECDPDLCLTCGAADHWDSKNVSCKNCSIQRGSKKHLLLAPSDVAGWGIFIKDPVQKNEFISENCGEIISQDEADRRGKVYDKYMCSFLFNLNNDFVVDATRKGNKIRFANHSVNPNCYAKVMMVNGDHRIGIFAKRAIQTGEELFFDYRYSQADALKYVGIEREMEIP
Chain of Y641N EZH2 (O75530 whole entry partner): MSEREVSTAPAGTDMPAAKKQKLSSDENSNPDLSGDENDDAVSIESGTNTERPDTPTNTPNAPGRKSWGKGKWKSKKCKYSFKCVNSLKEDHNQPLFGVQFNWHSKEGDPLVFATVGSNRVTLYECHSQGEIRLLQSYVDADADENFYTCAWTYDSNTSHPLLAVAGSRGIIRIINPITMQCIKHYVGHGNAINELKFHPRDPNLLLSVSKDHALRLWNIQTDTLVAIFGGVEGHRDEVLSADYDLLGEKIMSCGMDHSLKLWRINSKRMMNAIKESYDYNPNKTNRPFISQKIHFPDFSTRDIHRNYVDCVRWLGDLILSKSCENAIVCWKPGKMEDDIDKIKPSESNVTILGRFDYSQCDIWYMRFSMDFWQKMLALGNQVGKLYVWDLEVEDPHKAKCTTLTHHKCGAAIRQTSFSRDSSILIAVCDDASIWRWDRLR
Chain of Y641N EZH2 (Q15022 whole entry partner): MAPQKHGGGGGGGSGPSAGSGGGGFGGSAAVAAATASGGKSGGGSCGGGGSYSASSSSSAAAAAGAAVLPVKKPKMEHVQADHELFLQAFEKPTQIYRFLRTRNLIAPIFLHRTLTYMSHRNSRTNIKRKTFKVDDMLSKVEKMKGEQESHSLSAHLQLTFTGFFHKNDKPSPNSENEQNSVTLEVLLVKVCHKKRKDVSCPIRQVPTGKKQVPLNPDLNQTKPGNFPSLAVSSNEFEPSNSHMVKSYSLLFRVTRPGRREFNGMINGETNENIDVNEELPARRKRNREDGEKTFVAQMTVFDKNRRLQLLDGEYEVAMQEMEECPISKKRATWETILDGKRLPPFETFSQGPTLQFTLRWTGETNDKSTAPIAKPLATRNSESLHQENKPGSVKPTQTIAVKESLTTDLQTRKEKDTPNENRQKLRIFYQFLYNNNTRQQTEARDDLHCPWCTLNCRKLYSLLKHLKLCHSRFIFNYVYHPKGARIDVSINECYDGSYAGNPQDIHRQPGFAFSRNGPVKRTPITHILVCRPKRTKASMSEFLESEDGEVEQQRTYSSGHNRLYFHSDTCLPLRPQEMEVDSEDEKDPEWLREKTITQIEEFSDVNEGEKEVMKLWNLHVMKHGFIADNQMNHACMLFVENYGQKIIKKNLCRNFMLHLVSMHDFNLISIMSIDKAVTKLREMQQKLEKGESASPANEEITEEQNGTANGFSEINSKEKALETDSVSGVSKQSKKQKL
Protocol: Assays were carried out by mixing rPRC2 together with biotinylated oligonucleosome substrates in the presence of the radio-labeled enzyme co-factor, S-adenosyl-L-methionine (^3H SAM) (Perkin Elmer) and monitoring the enzymatically mediated transfer of tritiated methyl groups from ^3H SAM to histone lysine residues. The amount of resulting tritated methylhistone product was measured by first capturing the biotinylated oligonuclesomes in streptavidin (SAV) coated FlashPlates (Perkin Elmer), followed by a wash step to remove un-reacted ^3H SAM, and then counting on a TopCount NXT 384 well plate scintillation counter (Perkin Elmer). The final assay conditions for EZH2 were as follows: 50 mM Tris Buffer pH 8.5, 1 mM DTT, 69 uM Brij-35 detergent, 5.0 mM MgCl2, 0.1 mg/mL BSA, 0.2 uM ^3H SAM, 0.2 uM biotinylated oligonucleosomes, 3.6 uM H3K27me3 peptide and 2 nM EZH2.
Compound IC50 measurements were obtained as follows: Compounds were first dissolved in 100% DMSO as 10 mM stock solutions. […] A 12.5 uL volume of the HMT enzyme, H3K27me3 peptide and oligonucleosome substrate in assay buffer was added to each well of the assay plate using a Multidrop Combi (ThermoFisher). Compounds were pre-incubated with the enzyme for 20 min, followed by initiation of the methyltransferase reaction by addition of 12.5 uL of 3H SAM in assay buffer (final volume=25 uL). The final concentrations of compounds ranged from a top default concentration of 80 uM down to 0.16 uM in ten 2-fold dilution steps. Reactions were carried out for 60 minutes and quenched with 20 uL per well of 1.96 mM SAH, 50 mM Tris PH 8.5, 200 mM EDTA. Stopped reactions were transferred to SAV coated Flashplates (Perkin Elmer), incubated for 120 min, washed with a plate washer, and then read on the TopCount NXT (1.0 min/well) to measure the amount of methylhistone product formed during the reaction. The amount of methylhistone product was compared with the amount of product formed in the 0% and 100% inhibition control wells allowing the calculation of % Inhibition in the presence of the individual compounds at various concentrations. IC50's were computed using a 4 parameter fit non-linear curve fitting software package (XLFIT, part of the database package, ActivityBase (IDBS)) where the four parameters were IC50, Hill slope, pre-transitional baseline (0% INH), and post-transitional baseline (100% INH); with the latter two parameters being fixed to zero and 100%, respectively, by default.

Chain of EZH2 (Q15910 whole entry): as the sequence (Q15910 whole entry Y641N) above, with N641Y counted along it
Chain of EZH2 (O75530 whole entry partner): as the sequence (O75530 whole entry partner) above
Chain of EZH2 (Q15022 whole entry partner): as the sequence (Q15022 whole entry partner) above

## CC1(C)CC(NC(=O)c2ccc(Oc3cccc(N4CCOCC4)c3)c(Cl)c2)CC(C)(C)N1 [Compound I-590]
EZH2
  IC50: 20 to 80 µM
Y641N EZH2
  IC50: > 80 µM

## CC1(C)CC(NC(=O)c2ccc(Oc3ccccc3C#N)c(F)c2)CC(C)(C)N1 [Compound I-217]
EZH2
  IC50: < 5 µM
Y641N EZH2
  IC50: 20 to 80 µM
